Consider 18 compounds from PubChem BioAssay (NCI).

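Tested at 5 concentrations; 48 h exposure; 96-well plates; endpoints linearly interpolated, else capped at highest concentration. Abbreviation: GI50, concentration required for 50% inhibition of growth. At the TGI there is no net growth.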

Holding throughout (assay): NCI-60 cell line screen, 48 h
Assay [1] has as its system MDA-MB-231 breast.
Assay [2] deals with MOLT-4 leukemia.
For assay [3], the system named is SK-MEL-5 melanoma.
The test system of assay [4] is M14 melanoma.
Assay [5] has as its system NCI-H226 lung.
The test system of assay [6] is NCI-H460 lung.
Assay [7] relates to UACC-62 melanoma.
The test system of assay [8] is KM12 colon.
In assay [9] the test system is HCC-2998 colon.
For assay [10], the system named is SF-268 CNS.
Assay [11] has as its system SW-620 colon.
The subject of assay [12] is SNB-75 CNS.
Assay [13] relates to TK-10 renal.
For assay [14], the system named is PC-3 prostate.
Assay [15] deals with A549 NSCLC.
Assay [16] deals with HCT-116 colon.
Assay [17] deals with HOP-92 NSCLC.

Take `Cc1cc2c(cc1Cl)SC(NNc1ccc([N+](=O)[O-])cc1)=NS2(=O)=O`: the TGI in [1], in [2], in assay [3], in assay [4], in [5] and in assay [6] was > 10 µM each time. Further, the TGI in [7], in [8], in assay [9], in assay [10], in assay [11] and in [12] was > 10 µM throughout. For the same compound, the TGI in assay [13], in assay [14], in assay [15] and in assay [16] was > 10 µM in each case.
On to `Cc1c(C)c(S(=O)(=O)N(CCCCCON)OCCCN)c(C)c2c1OC(C)(C)CC2`, for which the TGI in [1] turned out to be 30.4 µM; in [2] it was 30 µM; in assay [3], 29.5 µM; in assay [4] it was 18.8 µM; in [5], 36.7 µM; in assay [6], 22.4 µM. Besides, the TGI was 27.4 µM in assay [7]; 27.3 µM in assay [8]; 30.5 µM in [10]; 33.2 µM in assay [11]; 27.3 µM in assay [12]; 27.5 µM in [13]. In addition, the TGI in assay [14] is 26.4 µM; in [15] it was 26.1 µM; in assay [17] it was 23 µM; in assay [16], > 100 µM.
As to `CC1=C(C(=O)OC(C)C)C(c2ccccc2C(F)(F)F)C(C(=O)OC(CO[N+](=O)[O-])CO[N+](=O)[O-])=C(C)N1` (configuration not stated), the TGI was found to be 28.2 µM in [1]; 9.79 µM in assay [2]; 11.4 µM in assay [3]; 23.9 µM in assay [4]; 38.5 µM in assay [5]; 42.6 µM in assay [6]. The TGI was 20.1 µM in [7]; 18.5 µM in [8]; > 100 µM in [9]; 38.7 µM in [10]; 23.3 µM in assay [11]; 16.7 µM in [12]. Moreover, the TGI was > 100 µM in assay [13], 12.2 µM in assay [14], 33 µM in assay [15] and 16.6 µM in assay [16].
Turning to `N#Cc1c(N2CCOCC2)[nH]c(=O)c(C(c2c(Cl)cccc2Cl)c2c(O)c(C#N)c(N3CCOCC3)[nH]c2=O)c1O`, the TGI was 30.4 µM in assay [1]; 36.2 µM in assay [2]; 35.4 µM in [3]; 42.9 µM in assay [4]; 37.5 µM in assay [5]; > 100 µM in assay [6]. For the same compound, the TGI in assay [7] stood at 30.2 µM; in assay [8], 32.7 µM; in assay [9], 27.5 µM; in assay [10], 51.1 µM; in assay [11] it was 36.8 µM; in assay [13], 32.5 µM. Further, the TGI was 37.7 µM in assay [14], > 100 µM in [15], 37.8 µM in assay [17] and > 100 µM in assay [16].
Consider `N#Cc1nc(COCCOCc2ccc(F)cc2)oc1N`, for which the TGI in assay [1], in assay [2], in assay [3], in assay [4], in [5] and in assay [6] was > 100 µM throughout. The TGI in assay [7], in assay [8], in assay [9], in [10], in assay [11] and in assay [12] was > 100 µM throughout. Moreover, the TGI in assay [13], in assay [14], in assay [15] and in [16] was > 100 µM in each case.
For the compound `CCc1n[nH]c(=O)n1CCO`, the TGI in assay [1], in assay [2], in [3], in assay [4], in assay [5] and in assay [6] was > 100 µM each time. The TGI in assay [7], in assay [8], in [9], in [11], in [13] and in assay [14] was > 100 µM throughout. In addition, the TGI in assay [15], in assay [17] and in assay [16] was > 100 µM each time.
For the compound `COc1ccc(N=[N+]([O-])c2ccc(OC)cc2)cc1`, the TGI in [1], in assay [2], in assay [3], in assay [4], in assay [6] and in assay [7] was > 100 µM each time. Also, the TGI in [8], in assay [9], in assay [10], in assay [12], in assay [13] and in [14] was > 100 µM in each case. The TGI in [15], in assay [17] and in assay [16] was > 100 µM throughout.
In the case of `CCCCNC(=S)/N=C/c1c(O)c2ccccc2[nH]c1=O`, the TGI in assay [1], in assay [2], in assay [4], in assay [5], in [6] and in [7] was > 10 µM each time. The TGI in assay [8], in assay [9], in [10], in [11], in assay [13] and in assay [14] was > 10 µM in each case. In addition, the TGI in assay [15] and in assay [17] was > 10 µM each time.
For `CC(=O)c1sc(=N)n(-c2c(C)cccc2C)c1C`, the TGI in assay [1], in assay [2], in [3], in assay [4], in [5] and in assay [6] was > 100 µM each time. Besides, the TGI in assay [7], in assay [8], in assay [9], in assay [10], in [11] and in assay [12] was > 100 µM in each case. Further, the TGI in assay [13], in assay [14] and in assay [15] was > 100 µM each time.
Take `O=C1Oc2cc3c(c4cccc1c24)O[C@H](c1ccccc1)[C@@H](c1ccccc1)[C@@H]3c1ccc(Cl)cc1`: the TGI in assay [1] was 52.3 µM; in assay [2], 64.3 µM; in assay [3] it was > 100 µM; in [4], > 100 µM; in assay [5] it was > 100 µM; in assay [6], > 100 µM. Further, the TGI in assay [7], in [8], in assay [9], in assay [10], in assay [11] and in [13] was > 100 µM in each case. In addition, the figures for the TGI in [14], in assay [17] and in [16] were > 100 µM, 67.9 µM and > 100 µM, respectively.
As to `Cc1ccc2c(=O)cc(-c3sc4ccccc4c3C)[nH]c2n1`, the TGI in assay [1] is > 100 µM; in assay [2] it was 69.7 µM; in assay [3], 28.2 µM; in [4], 51 µM; in [5], 81.3 µM; in [7], 36.3 µM. Moreover, the TGI in [8] was 36.4 µM; in [10] it was 69.7 µM; in assay [11], 65.8 µM; in [12] it was 50.8 µM; in [13], > 100 µM; in assay [14], > 100 µM. The TGI in assay [15] was 85.6 µM; in assay [17], 30.6 µM; in assay [16], 55.6 µM. The GI50 in [3] was 14.9 µM; in assay [11] it was 19.8 µM; in assay [14], 33.4 µM.
On to `CC(=O)c1cc(C)n2c1CS[C@@H]2c1ccccc1`, for which the TGI was > 100 µM in [1]; 96.5 µM in assay [2]; > 100 µM in assay [3]; > 100 µM in assay [4]; > 100 µM in assay [5]; > 100 µM in [8]. The TGI in [10], in assay [11], in assay [12], in assay [13], in [14] and in [15] was > 100 µM in each case. Further, the TGI in assay [17] and in assay [16] was > 100 µM in each case.
`c1ccc(CC2(c3cc4ccccc4[nH]3)OCCO2)nc1`: the TGI in assay [1], in assay [2], in assay [3], in assay [4], in assay [5] and in [6] was > 100 µM each time. For the same compound, the TGI in assay [7], in [8], in assay [10], in assay [11], in assay [12] and in [13] was > 100 µM throughout. Further, the TGI in [14], in assay [15], in assay [17] and in assay [16] was > 100 µM in each case.
As for `C=CCN1CN(c2ccccc2)C2(CCN(CCCC3(c4ccc(F)cc4)OCCO3)CC2)C1=O`, the TGI in assay [1] was determined as 33.7 µM; in [2] it was 39.6 µM; in assay [3] it was 29.8 µM; in assay [4], 30.6 µM; in [5] it was 36.2 µM; in [7], 34.5 µM. The TGI in [8] came out at 29.8 µM; in [9], 35.6 µM; in [10] it was 38.5 µM; in [11], 36.9 µM; in [12] it was 32.8 µM; in assay [13], 33.5 µM. Further, the TGI stood at 31.7 µM in assay [14], 42.9 µM in assay [15] and 28.4 µM in assay [16].
Turning to `Cc1cccc2c(=O)c3cccc([C@@H](C)C(=O)O)c3oc12`, the TGI in assay [1], in assay [2], in [3], in assay [4], in assay [5] and in assay [6] was > 100 µM each time. Also, the TGI in assay [8], in assay [9], in [10], in assay [11], in assay [13] and in assay [14] was > 100 µM in each case. The TGI in assay [15], in assay [17] and in [16] was > 100 µM each time.
Consider `COc1cccc(-c2nc(-c3cnccn3)n(COCCO)n2)c1`, for which the TGI in assay [1], in assay [2], in assay [3], in assay [4], in [6] and in assay [7] was > 100 µM throughout. Moreover, the TGI in [8], in [9], in assay [10], in assay [11], in assay [13] and in assay [14] was > 100 µM in each case. Further, the TGI in assay [15], in assay [17] and in assay [16] was > 100 µM throughout.
Consider `CC(=O)O[C@@H](C1C[C@@H](C)[C@H]2[C@@](O)(O1)[C@H](O)[C@@]1(C)C3=CC[C@H]4C(C)(C)[C@@H](OC5OCC(O)C(O)C5O)CC[C@@]45C[C@@]35CC[C@]21C)C(C)(C)O` (some centres not stated), for which the TGI in assay [1] was 37.2 µM; in [2] it was 44.8 µM; in assay [3], 32.7 µM; in assay [4] it was > 100 µM; in assay [5], 45.9 µM; in assay [6], 40.6 µM. In addition, the TGI was 40.3 µM in assay [7]; 58.1 µM in assay [8]; 27.7 µM in assay [9]; > 100 µM in [10]; > 100 µM in [11]; 69.5 µM in assay [13]. For the same compound, the TGI is 50.7 µM in assay [14], > 100 µM in assay [15], 60.5 µM in assay [17] and 41.5 µM in [16].
Consider `O=C1c2ccccc2-c2c1c(-c1cccc(Br)c1)nc1ccc3ccccc3c21`, for which the TGI in assay [1], in assay [2], in assay [4], in assay [5], in [6] and in assay [7] was > 100 µM each time. Moreover, the TGI in [8], in assay [9], in [10], in assay [11], in assay [12] and in assay [14] was > 100 µM throughout. Moreover, the TGI in assay [15] and in assay [16] was > 100 µM throughout.
